Literature values as cited in patent publication US20190167612A1, “PHARMACEUTICAL FORMULATION FOR ORAL ADMINISTRATION WITH CONTROLLED DISSOLUTION RATE COMPRISING SUSTAINED-RELEASE PELLETS CONTAINING TAMSULOSIN HYDROCHLORIDE” (HANMl PHARM. CO., LTD., priority 2016, published 2019).
Structures can show the parent of a compound that is named as a salt.

Legend:
[1] = in vivo

Bioavailability [1]: ≥ 90%
Solubility in water: slight solubility in water
SMILES: CCOc1ccccc1OCCN[C@H](C)Cc1ccc(OC)c(S(N)(=O)=O)c1 [Tamsulosin hydrochloride, (R)-5-[2-[[2-(2-ethoxyphenoxy)ethyl]-amino]propyl]-2-methoxy-benzenesulfonamide]
